SMILES | melting point [°C]
O=c1cccnn1-c1ccc2nc([C@H]3C[C@@H](N4CCCCC4)C3)sc2c1 [Example 48B, Cis-2-[2-(3-piperidin-1-ylcyclobutyl)-1,3-benzothiazol-6-yl]pyridazin-3(2H)-one] | 127 to 128
O=c1cccnn1-c1ccc2nc([C@H]3C[C@H](N4CCCCC4)C3)sc2c1 [Example 48A, Trans-2-[2-(3-piperidin-1-ylcyclobutyl)-1,3-benzothiazol-6-yl]pyridazin-3(2H)-one] | 139 to 140

Reference: US8592467B2, “Benzothiazole cyclobutyl amine derivatives” (Abbvie Inc., priority 2005, dated 2013)
